According to the supplement of paper PMC10331698:
± gives the standard deviation of the averaged measurements.

Experiments:
Assay in all cases: level (log10 ratio to DMSO vehicle control); higher = higher biomarker level / cell amount than vehicle control
[1] = compound: CCOC(=O)CC(=O)C(F)(F)C(F)(F)F [Ethyl pentafluoropropionyl acetate] (in DMSO)
Description: (§1)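 BioMAP Diversity Plus panel of 12 human primary cell co-culture systems (3C, 4H, LPS, SAg, BT, BF4T, BE3C, CASM3C, HDF3CGF, KF3CT, MyoF, Mphg). Compounds were added 1 h before stimulation and left for 24 h (MyoF 48 h; BT 72 h for soluble read-outs or 6 d for IgG). Biomarkers were read by ELISA, cytotoxicity by SRB, PBMC viability and proliferation by Alamar Blue. Each well value was divided by the mean of 8 DMSO control wells on the same plate and log10 transformed; duplicate blinded samples were tested at 4 concentrations.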

[2] = compound: CO[Si](C)(CCC(F)(F)C(F)(F)C(F)(F)C(F)(F)C(F)(F)C(F)(F)F)OC [Dimethoxymethyl((perfluorohexyl)ethyl)silane] (in DMSO)
Description: as §1

[3] = compound: O=C(O)C(F)(F)OC(F)(F)C(F)(F)OC(F)(F)C(F)(F)OC(F)(F)C(F)(F)C(F)(F)C(F)(F)F [Perfluoro-3,6,9-trioxatridecanoic acid] (in DMSO); conditions: 6700 nM
Description: as §1

[4] = compound: O=C(O)C(F)(OC(F)(F)C(F)(F)C(F)(F)F)C(F)(F)F [Ammonium perfluoro-2-methyl-3-oxahexanoate] (in Water)
Description: as §1

[5] = compound: O=S(=O)(O)C(F)(F)C(F)(F)C(F)(F)C(F)(F)C(F)(F)C(F)(F)C(F)(F)F [Perfluoroheptanesulfonic acid] (in DMSO)
Description: as §1

[6] = compound: O=S(=O)(O)C(F)(F)C(F)(F)OC(F)(F)C(F)(F)F [Perfluoro(2-ethoxyethane)sulfonic acid] (in DMSO)
Description: as §1

[7] = compound: OCCC(F)(F)C(F)(F)C(F)(F)C(F)(F)F [4:2 Fluorotelomer alcohol] (in DMSO)
Description: as §1

| Test System | level (log10) ([1]; 6700 nM) | level (log10) ([1]; 20000 nM) | level (log10) ([1]; 60000 nM) | level (log10) ([2]; 6700 nM) | level (log10) ([2]; 20000 nM) | level (log10) [3] | level (log10) ([4]; 6700 nM) | level (log10) ([4]; 20000 nM) | level (log10) ([4]; 60000 nM) | level (log10) ([5]; 1500 nM) | level (log10) ([5]; 4400 nM) | level (log10) ([5]; 13000 nM) | level (log10) ([5]; 40000 nM) | level (log10) ([6]; 6700 nM) | level (log10) ([6]; 20000 nM) | level (log10) ([6]; 60000 nM) | level (log10) ([7]; 6700 nM) | level (log10) ([7]; 20000 nM) | level (log10) ([7]; 60000 nM) |
| --- | --- | --- | --- | --- | --- | --- | --- | --- | --- | --- | --- | --- | --- | --- | --- | --- | --- | --- | --- |
| LPS:CD142/Tissue Factor | -0.01 ± 0.021 | -0.032 ± 0.028 | -0.002 ± 0.033 | 0.011 ± 0.048 | 0.017 ± 0.058 | -0.091 ± 0.021 | 0.0885 ± 0.064 | 0.0845 ± 0.028 | 0.075 ± 0.045 | 0.0145 ± 0.049 | 0.006 ± 0.0042 | 0.0615 ± 0.063 | 0.0555 ± 0.061 | 0.0685 ± 0.042 | 0.1 ± 0.057 | 0.0485 ± 0.093 | -0.0015 ± 0.0064 | -0.025 ± 0.047 | 0.0235 ± 0.016 |
| 3C:CXCL8/IL-8 | -0.0105 ± 0.0092 | -0.006 ± 0.0071 | 0.022 ± 0.031 | -0.007 ± 0.0014 | 0.011 ± 0.0057 | -0.003 ± 0.027 | 0.038 ± 0.037 | 0.0745 ± 0.029 | 0.131 ± 0.014 | 0.007 ± 0.086 | -0.0115 ± 0.013 | 0.0015 ± 0.03 | 0.055 ± 0.054 | 0.0295 ± 0.028 | 0.0455 ± 0.074 | 0.095 ± 0.062 | -0.002 | 0.017 ± 0.031 | 0.044 ± 0.059 |
| BE3C:CXCL9/MIG | 0.001 ± 0.0099 | 0.001 ± 0.0028 | 0.006 ± 0.0028 | 0.002 ± 0.0042 | 0.001 ± 0.0071 | -1.19 ± 0.017 | 0.0065 ± 0.013 | 0.0045 ± 0.005 | 0 ± 0.0042 | -0.011 ± 0.02 | -0.009 ± 0.025 | -0.006 ± 0.013 | -0.006 ± 0.016 | 0.002 ± 0.0042 | -0.0145 ± 0.012 | -0.0055 ± 0.0035 | -0.0055 ± 0.016 | 0.0065 ± 0.0078 | 0.0025 ± 0.0021 |
| LPS:IL-1alpha | 0 ± 0.034 | -0.0335 ± 0.025 | 0.0115 ± 0.019 | 0.005 ± 0.03 | 0.0235 ± 0.0092 | -0.038 ± 0.013 | 0.0325 ± 0.04 | 0.0475 ± 0.015 | 0.019 ± 0.062 | 0.0125 ± 0.033 | -0.0015 ± 0.026 | -0.002 ± 0.069 | 0.056 ± 0.095 | 0.026 ± 0.025 | 0.044 ± 0.016 | 0.011 ± 0.027 | -0.039 ± 0.055 | -0.0135 ± 0.0021 | -0.0205 ± 0.0078 |
| BT:PBMC Cytotoxicity | -0.0045 ± 0.026 | 0.011 ± 0.0099 | -0.0095 ± 0.029 | -0.0015 ± 0.0021 | 0.023 ± 0.0028 | 0.0125 ± 0.0078 | -0.083 ± 0.016 | -0.095 ± 0.0099 | -0.0905 ± 0.023 | -0.0045 ± 0.021 | -0.009 ± 0.011 | -0.0015 ± 0.013 | 0.0145 ± 0.054 | 0.0245 ± 0.033 | 0.0005 ± 0.0035 | 0.056 ± 0.013 | -0.044 ± 0.0042 | -0.0365 ± 0.013 | -0.045 ± 0.031 |
| 4H:CCL2/MCP-1 | -0.0235 ± 0.029 | -0.0455 ± 0.064 | -0.008 ± 0.1 | -0.05 ± 0.033 | 0.011 ± 0.12 | -0.029 ± 0.0099 | 0.0005 ± 0.029 | 0.007 ± 0.037 | 0.008 ± 0.051 | -0.0125 ± 0.094 | 0.0165 ± 0.081 | 0.03 ± 0.05 | 0.0135 ± 0.012 | -0.019 ± 0.05 | -0.008 ± 0.021 | -0.0015 ± 0.016 | -0.101 ± 0.0071 | -0.0325 ± 0.0064 | 0.0115 ± 0.025 |
| SAg:SRB | 0 ± 0.0057 | 0.004 | -0.003 ± 0.02 | -0.0125 ± 0.013 | 0.0045 ± 0.0035 | 0.0015 ± 0.013 | -0.019 ± 0.0042 | -0.01 ± 0.0014 | -0.0285 ± 0.0021 | -0.015 ± 0.0057 | -0.0125 ± 0.00071 | -0.0005 ± 0.012 | -0.0025 ± 0.013 | -0.0125 ± 0.013 | -0.0125 ± 0.0021 | -0.0185 ± 0.0092 | -0.009 ± 0.0042 | -0.013 ± 0.016 | 0.001 ± 0.0028 |
| LPS:sPGE2 | 0.0175 ± 0.012 | -0.0005 ± 0.013 | 0.034 ± 0.0014 | 0 ± 0.042 | -0.0145 ± 0.035 | -0.0245 ± 0.013 | 0.093 ± 0.061 | 0.0575 ± 0.039 | 0.0765 ± 0.018 | 0.018 ± 0.024 | 0.0045 ± 0.016 | 0.0175 ± 0.0064 | 0.005 ± 0.024 | 0 ± 0.028 | -0.0545 ± 0.03 | -0.001 ± 0.011 | -0.008 ± 0.025 | -0.0115 ± 0.044 | -0.0105 ± 0.025 |
| BF4T:MMP-3 | 0.0105 ± 0.029 | -0.012 ± 0.047 | -0.0025 ± 0.052 | 0.0005 ± 0.0035 | -0.015 ± 0.0099 | -0.0415 ± 0.064 | 0.0335 ± 0.047 | 0.018 ± 0.0057 | 0.048 ± 0.014 | 0.047 ± 0.045 | -0.015 ± 0.014 | 0.0025 ± 0.046 | 0.117 ± 0.028 | 0.0015 ± 0.0064 | 0.0105 ± 0.023 | 0.0805 ± 0.067 | -0.0135 ± 0.021 | -0.008 ± 0.013 | -0.011 ± 0.014 |
| LPS:M-CSF | -0.021 ± 0.011 | 0.0085 ± 0.019 | 0.012 ± 0.088 | -0.022 ± 0.017 | 0.025 ± 0.041 | 0.009 ± 0.018 | -0.02 ± 0.024 | -0.009 ± 0.016 | -0.0045 ± 0.005 | -0.008 ± 0.027 | -0.0185 ± 0.015 | -0.0405 ± 0.013 | -0.02 ± 0.024 | -0.0095 ± 0.059 | 0.026 ± 0.028 | -0.0085 ± 0.032 | -0.041 ± 0.027 | 0.005 ± 0.057 | 0.029 ± 0.044 |
| 3C:CD87/uPAR | 0.011 ± 0.0042 | 0.0075 ± 0.00071 | -0.003 ± 0.011 | -0.002 ± 0.0071 | -0.026 ± 0.021 | 0.0095 ± 0.028 | -0.016 ± 0.054 | -0.0085 ± 0.028 | -0.042 ± 0.021 | 0.0655 ± 0.0078 | 0.0535 ± 0.021 | 0.0485 ± 0.044 | 0.0565 ± 0.064 | 0.0105 ± 0.0064 | 0.0165 ± 0.0021 | 0.007 ± 0.0071 | -0.015 ± 0.014 | -0.0215 ± 0.028 | 0.005 ± 0.0071 |
| BF4T:uPA | -0.0145 ± 0.023 | -0.0045 ± 0.013 | -0.0175 ± 0.025 | -0.0095 ± 0.00071 | -0.014 ± 0.0085 | 0.0245 ± 0.018 | -0.0025 ± 0.011 | -0.0005 ± 0.0078 | 0.0035 ± 0.022 | 0.001 ± 0.018 | -0.0035 ± 0.012 | -0.017 ± 0.0014 | 0.0095 ± 0.0064 | -0.003 ± 0.011 | -0.0025 ± 0.021 | 0.0235 ± 0.00071 | -0.008 ± 0.035 | 0.012 ± 0.013 | 0.018 ± 0.025 |
| BF4T:PAI-I | 0.0015 ± 0.011 | 0.004 ± 0.011 | -0.0025 ± 0.011 | -0.008 ± 0.013 | -0.0145 ± 0.0021 | -0.011 ± 0.011 | -0.004 ± 0.0028 | 0.001 ± 0.0042 | 0.005 ± 0.0028 | 0.0205 ± 0.00071 | 0.01 | -0.0225 ± 0.011 | -0.0075 ± 0.025 | -0.002 ± 0.0014 | -0.002 ± 0.0028 | 0.0105 ± 0.021 | -0.0075 ± 0.023 | 0.0005 ± 0.035 | 0.0005 ± 0.00071 |
| BE3C:CD87/uPAR | 0.0145 ± 0.03 | -0.0045 ± 0.023 | 0.0065 ± 0.03 | 0.0225 ± 0.013 | 0.0075 ± 0.0078 | -0.48 ± 0.05 | 0.011 ± 0.034 | 0.0215 ± 0.0078 | 0.027 ± 0.0085 | 0.017 ± 0.024 | -0.0045 ± 0.015 | -0.0065 ± 0.03 | 0.05 ± 0.069 | -0.014 ± 0.035 | 0.012 ± 0.014 | 0.0075 ± 0.0021 | 0.005 ± 0.0099 | -0.0025 ± 0.0064 | 0.0145 ± 0.0021 |
